# Data from patent US11680050B2, “Crystalline forms of ozanimod and ozanimod hydrochloride, and processes for preparation thereof” (RECEPTOS LLC, priority 2016, dated 2023).
# Where a name gives a salt, the structure may show the parent alone.
# Experiments:
# Format in all cases: physicochemical
# [1] = Solubility assessment of saturated solutions in SGF, FeSSIF and water, measured by HPLC
# Procedure: Form CS1 and Form CS1 of ozanimod hydrochloride were suspended into SGF (Simulated gastric fluids) and FeSSIF (Fed state simulated intestinal fluids, pH=5.0) to obtain saturated solutions. After being equilibrated for 1 h, 4 h and 24 h, concentrations of the saturated solutions were measured by HPLC.
# Form CS3 and Form CS5 were suspended into SGF (Simulated gastric fluids) and water, and Form CS2 was suspended into FeSSIF (Fed state simulated intestinal fluids) to obtain saturated solutions. After being equilibrated for 1 h, 4 h and 24 h, concentrations of the saturated solutions were measured by HPLC.
# [2] = Particle size distribution test (laser particle size analyzer, wet process); conditions: for MV, average particle size calculated by volume: dispersion medium Isopar G; for D10 / D50 (median diameter) / D90: volume distribution, Isopar G
# Procedure: The particle size distribution test in the present disclosure is acquired by the S3500 laser particle size analyzer of Microtrac. Microtrac S3500 is equipped with the SDC (Sample Delivery Controller). The test is carried out by wet process, and the dispersion medium is Isopar G The parameters are as follow:
# Certain amount of samples of Form CS1, Form CS2, Form CS3, Form CS5, Form CS6 of ozanimod and Form CS1 of ozanimod hydrochloride were taken for particle size distribution test.
# [3] = Stability assessment in constant temperature and humidity chambers (HPLC purity, XRPD crystalline form); conditions: for 1 week purity % / 2 week purity % / 4 week purity %: HPLC; for Change of the crystalline form: XRPD; for Stability, overall conclusion of the storage test: after storage under all conditions tested for the form
# Procedure: Three solid samples of Form CS1 were placed in constant temperature and humidity chambers at 25° C./60% RH, 40° C./75% RH and 60° C./75% RH for 4 weeks. XRPD was used to test the crystalline form at the end of week 4. HPLC was used to measure the chemical purity at the end of week 1, 2, and 4. The XRPD comparison result is shown in FIG. 31 (from top to bottom: XRPD pattern of Form CS1 before and after being stored under 25° C./60% RH, 40° C./75% RH and 60° C./75% RH for 4 weeks), and the results are shown in Table 20.
# Four solid samples of Form CS2 were placed in constant temperature and humidity chambers at 25° C./60% RH, 40° C./75% RH and 60° C./75% RH for 4 weeks and 80° C. for 1 week. XRPD was used to test the crystalline form at the end of week 4. HPLC was used to measure the chemical purity at the end of week 1, 2, and 4. The XRPD comparison result is shown in FIG. 32 (from top to bottom: XRPD pattern of Form CS2 before and after being stored under 25° C./60% RH, 40° C./75% RH and 60° C./75% RH for 4 weeks and 80° C. for 1 week), and the results are shown in Table 21.
# Three solid samples of Form CS3 were placed in constant temperature and humidity chambers at 25° C./60% RH, 40° C./75% RH and 60° C./75% RH for 4 weeks. XRPD was used to test the crystalline form at the end of week 4. HPLC was used to measure the chemical purity at the end of week 1, 2, and 4. The XRPD comparison pattern is shown in FIG. 33 (from top to bottom: XRPD pattern of Form CS3 before and after being stored under 25° C./60% RH, 40° C./75% RH and 60° C./75% RH for 4 weeks), and the results are shown in Table 22.
# Three solid samples of Form CS5 were placed in constant temperature and humidity chambers at 25° C./60% RH, 40° C./75% RH and 60° C./75% RH for 2 weeks. XRPD was used to test the crystalline form at the […]. The XRPD comparison pattern is shown in FIG. 34 (from top to bottom: XRPD pattern of Form CS5 before and after being stored under 25° C./60% RH, 40° C./75% RH and 60° C./75% RH for 2 weeks), and the results are shown in Table 23.
# Two samples of Form CS6 were placed in constant temperature and humidity chambers at 25° C./60% RH and 40° C./75% RH for 4 weeks. XRPD was used to test the crystalline form at the end of week 4. HPLC was used to measure the chemical purity at the end of week 1, 2, and 4.The XRPD comparison result is shown in FIG. 35 (from top to bottom: XRPD pattern of Form CS6 before and after being stored under 25° C./60% RH and 40° C./75% RH for 4 weeks), and the results are shown in Table 24.
# Four samples of Form CS1 of ozanimod hydrochloride were placed in constant temperature and humidity chambers at 25° C./60% RH, 40° C./75% RH and 60° C./75% RH for 4 weeks and 80° C. for 1 week. XRPD was used to test the crystalline form at the end of week 4. HPLC was used to measure the chemical purity at the end of week 1, 2, and 4. The XRPD comparison pattern is shown in FIG. 36 (from top to bottom: XRPD pattern of ozanimod hydrochloride Form CS1 before and after being stored under 25° C./60% RH, 40° C./75% RH and 60° C./75% RH for 4 weeks and 80° C. for 1 week), and the results are shown in Table 25.
# [4] = Mechanical stability, manual grinding for 5 minutes in mortar, XRPD; conditions: ground manually for 5 minutes, XRPD before and after
# Procedure: Solid samples of Form CS3, Form CS5, Form CS6 of ozanimod and Form CS1 of ozanimod hydrochloride were ground manually for 5 minutes in mortar.
# [5] = Hygroscopicity assessment by dynamic vapor sorption (DVS); conditions: for Hygroscopicity class according to the definition of hygroscopicity: Chinese Pharmacopoeia 2015, 25° C., 80% RH; for Weight gain under 80% RH: DVS, 25° C.
# Procedure: Dynamic Vapor Sorption (DVS) is measured via an SMS (Surface Measurement Systems Ltd.) intrinsic DVS. Typical Parameters for DVS test are as follows:
# Gas and flow rate: N2, 200 mL/min
# RH range: 0% RH to 95% RH […]
# Dynamic vapor sorption (DVS) was applied to test hygroscopicity of Form CS1 of ozanimod hydrochloride with about 10 mg of samples.
# Description and definition of hygroscopicity (Chinese Pharmacopoeia 2015 edition appendix Drug hygroscopic test guidelines, test at 25° C.+/−1° C., 80% RH). • deliquescent: Sufficient water is absorbed to form a liquid; • very hygroscopic: Increase in mass is equal to or greater than 15 percent; • hygroscopic: Increase in mass is less than 15 percent and equal to or greater than 2 percent; • slightly hygroscopic: Increase in mass is less than 2 percent and equal to or greater than 0.2 percent. • non hygroscopic or almost non hygroscopic: Increase in mass is less than 0.2 percent.
compound,measurement,setting,value
"CC(C)Oc1ccc(-c2nc(-c3cccc4c3CC[C@@H]4NCCO)no2)cc1C#N [Form CS1 of ozanimod hydrochloride, ozanimod hydrochloride]",Solubility,"[1]; FeSSIF (pH=5.0), 4 h, hydrochloride",1500 µg/mL
same,"MV, average particle size calculated by volume",[2]; hydrochloride,200.7 μm
same,D10,[2]; hydrochloride,20.84 μm
same,D50 (median diameter),[2]; hydrochloride,180.8 μm
same,D90,[2]; hydrochloride,397.7 μm
same,1 week purity %,"[3]; 25° C./60% RH, 1 week, hydrochloride",99.18%
same,2 week purity %,"[3]; 25° C./60% RH, 2 weeks, hydrochloride",99.13%
same,4 week purity %,"[3]; 25° C./60% RH, 4 weeks, hydrochloride",99.22%
same,Change of the crystalline form,"[3]; 25° C./60% RH, 4 weeks",No change
same,1 week purity %,"[3]; 40° C./75% RH, 1 week, hydrochloride",99.15%
same,2 week purity %,"[3]; 40° C./75% RH, 2 weeks, hydrochloride",99.12%
same,4 week purity %,"[3]; 40° C./75% RH, 4 weeks, hydrochloride",99.24%
same,Change of the crystalline form,"[3]; 40° C./75% RH, 4 weeks",No change
same,1 week purity %,"[3]; 60° C./75% RH, 1 week, hydrochloride",99.25%
same,2 week purity %,"[3]; 60° C./75% RH, 2 weeks, hydrochloride",99.25%
same,4 week purity %,"[3]; 60° C./75% RH, 4 weeks, hydrochloride",99.36%
same,Change of the crystalline form,"[3]; 60° C./75% RH, 4 weeks",No change
same,1 week purity %,"[3]; 80° C., 1 week, hydrochloride",99.34%
same,Change of the crystalline form,"[3]; 80° C., 1 week",No change
same,"Stability, overall conclusion of the storage test",[3],good stability
same,Form change under mechanical stress,[4],No form change
same,Hygroscopicity class according to the definition of hygroscopicity,[5],slightly hygroscopic (Increase in mass is less than 2 percent and equal to or greater than 0.2 percent)
same,Weight gain under 80% RH,[5]; hydrochloride,0.55%
same,Weight gain under 80% RH,"[5]; listed as ozanimod hydrochloride Form CS1, hydrochloride",0.55%
"CC(C)Oc1ccc(-c2nc(-c3cccc4c3CC[C@@H]4NCCO)no2)cc1C#N [Form CS3, ozanimod]",Solubility,"[1]; SGF, 1 h",540 µg/mL
same,Solubility,"[1]; SGF, 4 h",520 µg/mL
same,Solubility,"[1]; SGF, 24 h",540 µg/mL
same,solubility at 1 h,"[1]; water, thermodynamic from solid, H2O, 1 h",170 µg/mL
same,solubility at 24 h,"[1]; water, thermodynamic from solid, H2O, 24 h",350 µg/mL
same,"MV, average particle size calculated by volume",[2],66.62 μm
same,D10,[2],20.36 μm
same,D50 (median diameter),[2],51.80 μm
same,D90,[2],130.8 μm
same,1 week purity %,"[3]; 25° C./60% RH, 1 week",99.53%
same,2 week purity %,"[3]; 25° C./60% RH, 2 weeks",99.30%
same,4 week purity %,"[3]; 25° C./60% RH, 4 weeks",99.31%
same,Change of the crystalline form,"[3]; 25° C./60% RH, 4 weeks",No change
same,1 week purity %,"[3]; 40° C./75% RH, 1 week",99.52%
same,2 week purity %,"[3]; 40° C./75% RH, 2 weeks",99.28%
same,4 week purity %,"[3]; 40° C./75% RH, 4 weeks",99.17%
same,Change of the crystalline form,"[3]; 40° C./75% RH, 4 weeks",No change
same,1 week purity %,"[3]; 60° C./75% RH, 1 week",99.36%
same,2 week purity %,"[3]; 60° C./75% RH, 2 weeks",98.84%
same,4 week purity %,"[3]; 60° C./75% RH, 4 weeks",98.54%
same,Change of the crystalline form,"[3]; 60° C./75% RH, 4 weeks",No change
same,"Stability, overall conclusion of the storage test",[3],good stability
same,Form change under mechanical stress,[4],No form change
same,Weight gain under 80% RH,[5],2.25%
"CC(C)Oc1ccc(-c2nc(-c3cccc4c3CC[C@@H]4NCCO)no2)cc1C#N [Form CS5, ozanimod]",Solubility,"[1]; H2O, 24 h",270 µg/mL
same,Solubility,"[1]; SGF, 4 h",1000 µg/mL
same,Solubility,"[1]; SGF, 24 h",770 µg/mL
same,solubility at 4 h,"[1]; water, thermodynamic from solid, H2O, 4 h",260 µg/mL
same,"MV, average particle size calculated by volume",[2],68.84 μm
same,D10,[2],6.55 μm
same,D50 (median diameter),[2],41.10 μm
same,D90,[2],173.3 μm
same,Change of the crystalline form,"[3]; 25° C./60% RH, 2 weeks",No change
same,Change of the crystalline form,"[3]; 40° C./75% RH, 2 weeks",No change
same,Change of the crystalline form,"[3]; 60° C./75% RH, 2 weeks",No change
same,"Stability, overall conclusion of the storage test",[3],good stability
same,Form change under mechanical stress,[4],No form change
same,Hygroscopicity class according to the definition of hygroscopicity,[5],slightly hygroscopic (Increase in mass is less than 2 percent and equal to or greater than 0.2 percent)
same,Weight gain under 80% RH,[5],0.23%
